Reference: US20230129364A1, “PYRROLIDINE DERIVATIVE, AND PHARMACEUTICAL COMPOSITION FOR PREVENTING OR TREATING BETA-AMYLOID OR TAU PROTEIN-ASSOCIATED DISEASES CONTAINING SAME” (YONSEI UNIVERSITY, UNIVERSITY - INDUSTRY FOUNDATION (UIF), priority 2019, published 2023)

Assays:
[1] = biological target: T1, Tau protein (wild-type K18) (Homo sapiens, UniProt P10636); assay: Tau protein aggregation inhibition test (thioflavin T assay); type: biochemical; details: heparin/DTT-induced aggregation, 37° C. 5 days, ThT fluorescence vs tau-only control = 100%
T1 construct: Tau protein (wild-type K18)
T1 sequence (P10636 561-685 limits assumed): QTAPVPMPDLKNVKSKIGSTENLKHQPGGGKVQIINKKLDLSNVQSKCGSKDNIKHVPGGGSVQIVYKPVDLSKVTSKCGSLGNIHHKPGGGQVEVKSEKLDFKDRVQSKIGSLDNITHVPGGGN
Experimental: (§1) Tau protein (wild-type K18) was dissolved in phosphate-buffered saline (PBS, pH 7.4) at a concentration of 1 mg/mL to prepare a tau protein solution. In order to induce aggregation of tau proteins, 0.1 mg/mL of heparin and 100 μM dithiothreitol (DTT) were added to 1 mg/mL of the tau protein solution, followed by incubation at 37° C. for 5 days. At this time, the result was mixed with each test compound (50, 500 μM) such that the final concentration reached 0.5 mg/mL, followed by further incubation.
The inhibitory effect of each compound against tau aggregation was measured based on the intensity of fluorescence by thioflavin T (ThT) assay (see Example 2). More specifically, 25 μL of the reaction solution was charged in each well of a 96-well plate for fluorescence analysis, and 75 μL of the prepared thioflavin-T solution was then charged in each well. The reaction was allowed to proceed at room temperature in a dark laboratory for 5 minutes, and then fluorescence values were measured at an excitation wavelength of 450 nm and an emission wavelength of 485 nm using a multi-mode microplate reader.
The ratio of the fluorescence value measured in the group obtained by treating with each test compound to 100% of the fluorescence value of the group (control group) obtained by treating only with tau proteins and inducing aggregation for 5 days is set forth in Table 5 below: […]

[2] = biological target: T2, aggregated tau protein (wild-type K18) (Homo sapiens, UniProt P10636); assay: Tau protein aggregate degradation test (thioflavin T assay); type: biochemical; details: pre-aggregated tau, further 5 days at 37° C., ThT fluorescence vs control = 100%
T2 construct: Tau protein (wild-type K18)
T2 sequence (P10636 561-685 limits assumed): as above
Experimental: as §1, with “solution.” for “solution. In order to induce aggregation of tau proteins,”, “days to induce tau protein aggregation. The aggregated tau protein” for “days. At this time, the result”, “in an amount of 50 or” for “(50,”, “μM” for “μM)”, “incubation at 37° C. for 5 days to induce reaction.” for “incubation.”
The degradation effect of each compound on the tau aggregates was measured by thioflavin T (ThT) assay (see Example 2). More specifically, 25 μL of the reaction solution was charged in each well of a 96-well plate for fluorescence analysis and 75 μL of the prepared thioflavin-T solution was charged in each well. The reaction was allowed to proceed at room temperature in a dark laboratory for 5 minutes and then fluorescence values were measured at an excitation wavelength of 450 nm and an emission wavelength of 485 nm using a multi-mode microplate reader.
The ratio of the fluorescence value measured in the group obtained by treating with each test compound to 100% of the fluorescence value of the group (control group) obtained by treating only with tau proteins and inducing aggregation for 5 days is set forth in Table 6 below: […]

SMILES	Tau aggregation remaining (ThT fluorescence, % of tau-only control) ([1]; 50 uM test compound)	Tau aggregation remaining (ThT fluorescence, % of tau-only control) ([1]; 500 uM test compound)	ThT fluorescence remaining (% of control) ([2]; 50 uM test compound)	ThT fluorescence remaining (% of control) ([2]; 500 uM test compound)
O=C1NC(=O)C(Cc2ccoc2)S1 (centres unmarked) [DN204292, 5-(furan-3-ylmethyl)thiazolidine-2,4-dione]	63.18 % of control	60.16 % of control	82.23 % of control	77.46 % of control
O=C1NC(=O)C(Cc2c[nH]c3ccccc23)S1 (centres unmarked) [DN204295, 5-((1H-indol-3-yl)methyl)thiazolidine-2,4-dione]	74.98 % of control	59.6 % of control	89.98 % of control	
CN1C(=O)N/C(=C\c2cccc3ccoc23)C1=O [DN204670, (Z)-5-(benzofuran-7-ylmethylene)-3-methylimidazolidine-2,4-dione]	87.73 % of control			
CCN1C(=O)/C(=C/c2cccs2)NC1=S [DN204815, (Z)-3-ethyl-5-(thiophen-2-ylmethylene)-2-thioxoimidazolidin-4-one]		70.7 % of control	39.88 % of control	36.97 % of control
CCN1C(=O)/C(=C/c2csc3ccccc23)SC1=S [DN205782, (Z)-5-(benzo[b]thiophen-3-ylmethylene)-3-ethyl-2-thioxothiazolidin-4-one]	97.55 % of control	75.35 % of control		
CCN1C(=O)/C(=C/c2c[nH]c3cnccc23)SC1=S [DN205779, (Z)-5-((1H-pyrrolo[2,3-c]pyridin-3-yl)methylene)-3-ethyl-2-thioxothiazolidin-4-one]	83.56 % of control	62.51 % of control		
O=C1NC(=S)SC1Cc1c[nH]c2ccccc12 (centres unmarked) [DN204301, 5-((1H-indol-3-yl)methyl)-2-thioxothiazolidin-4-one]	90.337 % of control	39.019 % of control	80.31 % of control	45.47 % of control
CCN1C(=O)/C(=C/c2cccc3ccccc23)SC1=S [DN205783]	81.81 % of control	69.79 % of control		
CN1C(=O)N/C(=C\c2csc3ccccc23)C1=O [DN204671, (Z)-5-(benzo[b]thiophen-3-ylmethylene)-3-methylimidazolidine-2,4-dione]	88.61 % of control	77.02 % of control		
O=C1NC(=O)/C(=C/c2c[nH]c3ccccc23)S1 [DN204285, (Z)-5-((1H-indol-3-yl)methylene)thiazolidine-2,4-dione]	53.14 % of control	42.56 % of control	64.04 % of control	78.38 % of control
O=C1NC(=O)C(Cc2csc3ccccc23)S1 (centres unmarked) [DN204291, 5-(benzo[b]thiophen-3-ylmethyl)thiazolidine-2,4-dione]	65.99 % of control			
CCN1C(=O)/C(=C/c2csc3ccccc23)NC1=S [DN204810, (Z)-5-(benzo[b]thiophen-3-ylmethylene)-3-ethyl-2-thioxoimidazolidin-4-one]	87.61 % of control	65.66 % of control		
O=C1NC(=O)/C(=C/c2c[nH]c3cnccc23)S1 [DN204290, (Z)-5-((1H-pyrrolo[2,3-c]pyridin-3-yl)methylene)thiazolidine-2,4-dione]	63.13 % of control	42.61 % of control	54.41 % of control	40.38 % of control
O=C1NC(=O)C(Cc2ccsc2)S1 (centres unmarked) [DN204293, 5-(thiophen-3-ylmethyl)thiazolidine-2,4-dione]	55.97 % of control	58.22 % of control		95.86 % of control
O=C1NC(=O)C(Cc2cc[nH]c2)S1 (centres unmarked) [DN204307, 5-((1H-pyrrol-3-yl)methyl)thiazolidine-2,4-dione]		57.26 % of control		
O=C1NC(=S)SC1Cc1ccoc1 (centres unmarked) [DN204305, 5-(furon-3-ylmethyl)-2-thioxothiazolidin-4-one]	83.45 % of control	56.13 % of control	61.22 % of control	56.43 % of control
O=C1NC(=O)/C(=C/c2ccoc2)S1 [DN204287, (Z)-5-(furan-3-ylmethylene)thiazolidine-2,4-dione]	69.16 % of control	59.86 % of control	61.17 % of control	71.42 % of control
O=C1NC(=O)/C(=C/c2ccsc2)S1 [DN204288, (Z)-5-(thiophen-3-ylmethylene) thiazolidine-2,4-dione]	74.09 % of control	80.79 % of control		
CCN1C(=O)N/C(=C\c2c[nH]c3ccncc23)C1=O [DN205822, (Z)-5-((1H-pyrrolo[3,2-c]pyridin-3-yl)methylene)-3-ethylimidazolidine-2,4-dione]	83.97 % of control			
O=C1NC(=S)SC1Cc1cnc2ccccc2c1 (centres unmarked) [DN204302, 5-(quinolin-3-ylmethyl)-2-thioxothiazolidin-4-one]	67.16 % of control	47.38 % of control		
O=C1NC(=S)SC1Cc1ccsc1 (centres unmarked) [DN204306, 5-(thiophen-3-ylmethyl)-2-thioxothiazolidin-4-one]	66.31 % of control	52.16 % of control	66.03 % of control	73.34 % of control
O=C1NC(=S)SC1Cc1csc2ccccc12 (centres unmarked) [DN204300, 5-(benzo[b]thiophen-3-ylmethyl)-2-thioxothiazolidin-4-one]	92.633 % of control			
